Experimental data from PubChem BioAssay (NCI).
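Tested at 5 concentrations; 48 h exposure; 96-well plates; endpoints linearly interpolated, else capped at highest concentration. The concentration for 50% growth inhibition is given as GI50. At the TGI there is no net growth.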

What was measured:
Assay in all cases: NCI-60 cell line screen, 48 h
HCT-116 colon = test system: HCT-116 colon
HOP-92 NSCLC = test system: HOP-92 NSCLC
HS 578T breast = test system: HS 578T breast
K-562 leukemia = test system: K-562 leukemia
M14 melanoma = test system: M14 melanoma
MCF7 breast = test system: MCF7 breast
MDA-MB-231 breast = test system: MDA-MB-231 breast
NCI-H460 lung = test system: NCI-H460 lung
NCI-H522 lung = test system: NCI-H522 lung
OVCAR-4 ovarian = test system: OVCAR-4 ovarian
SN12C renal = test system: SN12C renal
SNB-75 CNS = test system: SNB-75 CNS
T-47D breast = test system: T-47D breast
U251 CNS = test system: U251 CNS
HL-60(TB) leukemia = test system: HL-60(TB) leukemia

| SMILES | TGI (HCT-116 colon) [µM] | TGI (HOP-92 NSCLC) [µM] | TGI (HS 578T breast) [µM] | TGI (K-562 leukemia) [µM] | TGI (M14 melanoma) [µM] | TGI (MCF7 breast) [µM] | TGI (MDA-MB-231 breast) [µM] | TGI (NCI-H460 lung) [µM] | TGI (NCI-H522 lung) [µM] | TGI (OVCAR-4 ovarian) [µM] | TGI (SN12C renal) [µM] | TGI (SNB-75 CNS) [µM] | TGI (T-47D breast) [µM] | TGI (U251 CNS) [µM] | TGI (HL-60(TB) leukemia) [µM] | GI50 (HCT-116 colon) [µM] | GI50 (HOP-92 NSCLC) [µM] |
| --- | --- | --- | --- | --- | --- | --- | --- | --- | --- | --- | --- | --- | --- | --- | --- | --- | --- |
| C=C1C(=O)OC2/C=C(\CO)C3OC3C3OC3(C)CC(OC(=O)/C(=C/C)COC(C)=O)C12 (configuration not stated) | 2.96 | 4.35 | 20.4 | > 100 | 6.64 | 20.1 | 19.5 | 28.4 | 1.2 | 24.1 | 10.9 | 23 | 9.7 | 16.8 |  |  |  |
| COc1ccc(C(=O)c2[nH]c(Nc3cc(C)ccn3)c(C(=S)Nc3ccccc3)c2N)cc1 | 50.6 |  |  | > 100 | 42.5 | 75.2 | 44.5 | 31.5 | 29.9 | 36.5 | 39.2 | 50.9 | > 100 | 36.4 | 64 |  |  |
| Cc1c2cnccc2c(C)c2c1c1ccccc1n2CCCCCCCl | > 50 | > 50 |  | > 50 |  | > 50 |  | > 50 | > 50 | > 29.3 | > 50 | > 31.6 |  | > 50 | 40.6 |  |  |
| Nc1nc2cc(COc3ccc(C(=O)O)cc3)ccc2nc1-c1ccccc1 |  | > 10 | > 10 | > 10 | > 10 | > 10 | > 10 | > 10 | > 10 | > 10 | > 10 | > 10 | > 10 | > 10 | > 10 |  |  |
| Cc1ccc(C(=O)c2[nH]c(NCc3ccccc3)c(C(=S)Nc3ccccc3)c2N)cc1 | 15.2 | 18.9 |  | 5.11 | 3.97 | 13.2 | 19.6 | 18.8 | 4.96 | 12.5 | 28.8 | 16.6 | 33.5 | 15.6 | 33.5 |  |  |
| Nc1nc(N)c2ncn(Cc3ccccc3CO)c2n1 | > 100 | > 100 | > 100 | > 100 | > 100 | > 100 | > 100 | > 100 | > 100 | > 100 | > 100 | > 100 | > 100 | > 100 | > 100 |  |  |
| O=C1Sc2sc(=S)sc2SC1c1ccccc1 (configuration not stated) | > 100 | > 82.4 |  | > 70.7 |  | > 100 |  | > 100 | 19.5 | > 31.6 | > 100 | > 81.4 |  | > 100 | > 31.6 |  |  |
| COc1cnc2oc3ccc(O)cc3c2c1-c1ccccc1 | 45 | > 100 | > 100 | > 100 | 39.8 | > 100 |  | > 100 | > 100 | > 100 | > 100 | > 100 | > 100 | > 100 | > 100 |  |  |
| O=C(c1ccsc1)c1nccc2c1cnc1ccccc12 | > 100 | > 100 | 70.6 |  | > 100 | > 100 | > 100 | > 100 | 62 | > 100 | > 100 | 88.2 | > 100 | > 100 | 6.65 |  |  |
| COc1ccc(C)cc1NC(=S)N/N=C/c1ccco1 | > 100 | > 100 | > 100 | > 100 | > 100 | > 100 |  | > 100 | 69.2 | > 100 | > 100 | > 100 | > 100 |  | 86.2 |  |  |
| O=c1c2cc([N+](=O)[O-])ccc2[nH]n1Cc1ccccc1Cl | > 100 | 93.9 | > 100 | > 100 | > 100 |  | > 100 | > 100 | > 100 | > 100 | > 100 | > 100 |  | > 100 | > 100 |  |  |
| O=C(N/N=C/c1cc(Cl)cc(Cl)c1[O-])c1ccccc1O.O=C(N/N=C/c1cc(Cl)cc(Cl)c1[O-])c1ccccc1O.[Mn+2] | 13.8 | 3.33 |  | 17.2 | 2.51 |  |  |  | 0.737 | 1.58 |  | 22.9 |  | 5.52 | 0.404 | 0.423 | 0.429 |
